Results on 1 compound are retold here after US11643421B2, “Process for the preparation of tricyclic PI3K inhibitor compounds and methods for using the same for the treatment of cancer” (priority 2015, dated 2023).

A short description of data set [1]: Hepatocyte stability, predicted hepatic clearance. In kind it is in vitro ADME. As to conditions: in vitro t1/2 method. How it is done: The hepatocyte stability of compound IIIat was evaluated across preclinical species. Certain in vivo pharmacokinetic parameters were also evaluated. […] Male Sprague-Dawley rats, female CD-1 mice, male cynomolgus monkeys and beagle dogs were dosed intravenously with 1 mg/kg of compound IIIat prepared in 60% PEG400/10% Ethanol. Compound IIIat was administered orally (PO) at the indicated dose in 0.5% methylcellulose with 0.2% Tween 80 (MCT).

Data set [2] in a line: Phase I dose-escalation study, maximum tolerable dose. As to conditions: orally once daily in cycles of 28 days. How it is done:
Plasma samples for pharmacokinetic (“PK”) analysis were collected on day 1 and day 8 or day 15 of cycle 1. Fluorodeoxyglucose positron emission tomography (“FDG-PET”) was performed at baseline and on-treatment.

The target of data set [3] is T1, human P-gp (MDR1) (Homo sapiens, UniProt P08183).
T1 construct: host or cells: MDR1-MDCKI (canine kidney)
As to the kind of experiment: Transport assay in MDR1-MDCKI cell monolayers. In kind it is in vitro ADME. The conditions noted are these: MDCK-MDR1, 2-hour incubation. How it is done: (§1) MDR1-MDCKI cells were licensed from the NCI (National Cancer Institute, Bethesda, Md.) and Bcrp1-MDCKII, BCRP-MDCKII and Mdr1a-LLC-PK1 cells were obtained from the Netherlands Cancer Institute (Amsterdam. The Netherlands). […] The compound was dissolved in transport buffer consisting of Hank's balanced salt solution (HBSS) with 10 mM HEPES (Invitrogen Corporation, Grand Island, N.Y.). Lucifer Yellow (Sigma-Aldrich, St. Louis, Mo.) was used as the paracellular and monolayer integrity marker. […] The efflux ratio (ER) was calculated (Papp, B-A/Papp, A-B).

Data set [4] addresses T2, mouse Bcrp1 (Mus musculus, UniProt Q7TMS5).
T2 construct: host or cells: Bcrp1-MDCKII (canine kidney)
As to the kind of experiment: Transport assay in Bcrp1-MDCKII cell monolayers. In kind it is in vitro ADME. As to conditions: 2-hour incubation. How it is done:
as §1

For data set [5], the system named is P-gp and BCRP. As to the kind of experiment: Transport assays in cell monolayers, overall. The format is in vitro ADME. How it is done:
as §1

Data set [6] in a line: Brain binding, dialysis of brain homogenate. In kind it is in vitro ADME. The conditions noted are these: mouse brain homogenate, n=3, read-out: free fraction in brain tissues. The protocol: Following dialysis, tissues and buffer samples were analyzed as described for the plasma protein binding studies.
A short description of data set [7]: MALDI imaging of brain distribution, GS2 orthotopic model. As to conditions: 15 mg/kg PO, 1 hour post dose. The format is in vivo, female nude mice. The protocol: Mice were euthanized at 1 and 6 hours post-dose via exsanguination by perfusion under anesthesia. Brains were excised, flash frozen in liquid N2 and stored in a −80° C. freezer until analyzed. Fresh frozen tissue sections were obtained on a cryomicrotome (Leica CM3050S, Buffalo Grove, Ill.) at 12 μm thickness and thaw-mounted onto indium tin oxide coated glass slides (Bruker Daltonics, Billerica, Mass.). Tissue sections were an analyzed by imaging MALDI MS, providing signal intensities (and not absolute quantitation), followed by cresyl violet staining for histological interrogation.
For MALDI MAS analysis, a 40 mg/mL solution of 2,5-dihydroxybenzoic acid (Sigma-Aldrich, St. Louis, Mo.) was prepared in methanol:water (70:30 v/v). […] Matrix solution was homogenously spray-coated onto the tissue using a HTX TM-Sprayer (HTX technologies. Chapel Hill, N.C.). Matrix-coated tissue sections were transferred to the MALDI mass spectrometer (SolariX 7T FT-ICR, Bruker Daltonics, Bremen, Germany) for imaging analysis. […] Laser intensity and number of shots were optimized for sensitivity of the parent drug (1200 shots) with ion detection collected over the mass range of m/z 150-3000.
Following completion of the imaging experiments, matrix coaling was removed by rinsing the glass slide in 100% methanol for 30 seconds or until the entire matrix was visibly removed. […]

Data set [8] concerns the target Axl (Homo sapiens, UniProt P30530). As to the kind of experiment: biochemical. As to conditions: read-out: % inhib.
Data set [9] addresses CDK9/cyclinT1 (Homo sapiens, UniProt P50750). The experiment in a line: biochemical. The conditions noted are these: read-out: % inhib.
The target in data set [10] is CK1_gamma3 (Homo sapiens, UniProt Q9Y6M4). As to the kind of experiment: biochemical. As to conditions: read-out: % inhib.
In data set [11] the target is CamKIV (Homo sapiens, UniProt Q16566). As to the kind of experiment: biochemical. The conditions noted are these: read-out: % inhib.
Data set [12] addresses GSK3_beta (Homo sapiens, UniProt P49841). As to the kind of experiment: biochemical. As to conditions: read-out: % inhib.
Data set [13] deals with InsR (Homo sapiens, UniProt P06213). The experiment in a line: biochemical. The conditions noted are these: read-out: % inhib.
Data set [14] concerns the target MST2 (Homo sapiens, UniProt Q13188). The experiment in a line: biochemical. The conditions noted are these: read-out: % inhib.
Data set [15] has as its target PKC_eta (Homo sapiens, UniProt P24723). As to the kind of experiment: biochemical. As to conditions: read-out: % inhib.
Data set [16] deals with PhK_gamma1 (Homo sapiens, UniProt Q16816). The experiment in a line: biochemical. The conditions noted are these: read-out: % inhib.
In data set [17] the target is p70S6K (Homo sapiens, UniProt P23443). The experiment in a line: biochemical. The conditions noted are these: read-out: % inhib.
p70S6K, sequence (P23443 whole entry): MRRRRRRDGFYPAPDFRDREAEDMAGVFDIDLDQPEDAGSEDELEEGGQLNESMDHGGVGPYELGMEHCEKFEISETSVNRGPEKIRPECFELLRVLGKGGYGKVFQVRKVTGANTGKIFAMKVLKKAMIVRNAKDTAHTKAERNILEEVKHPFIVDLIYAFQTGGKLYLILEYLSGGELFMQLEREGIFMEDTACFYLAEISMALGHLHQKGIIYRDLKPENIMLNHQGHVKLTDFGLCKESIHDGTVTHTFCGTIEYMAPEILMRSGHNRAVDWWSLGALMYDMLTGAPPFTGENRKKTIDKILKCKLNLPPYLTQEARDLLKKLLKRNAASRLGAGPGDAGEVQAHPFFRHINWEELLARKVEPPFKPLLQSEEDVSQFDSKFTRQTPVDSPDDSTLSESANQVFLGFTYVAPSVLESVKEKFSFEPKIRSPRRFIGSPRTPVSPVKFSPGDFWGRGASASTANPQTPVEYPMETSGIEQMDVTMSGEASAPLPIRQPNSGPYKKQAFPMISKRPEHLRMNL

CK1_gamma3, sequence (Q9Y6M4 whole entry): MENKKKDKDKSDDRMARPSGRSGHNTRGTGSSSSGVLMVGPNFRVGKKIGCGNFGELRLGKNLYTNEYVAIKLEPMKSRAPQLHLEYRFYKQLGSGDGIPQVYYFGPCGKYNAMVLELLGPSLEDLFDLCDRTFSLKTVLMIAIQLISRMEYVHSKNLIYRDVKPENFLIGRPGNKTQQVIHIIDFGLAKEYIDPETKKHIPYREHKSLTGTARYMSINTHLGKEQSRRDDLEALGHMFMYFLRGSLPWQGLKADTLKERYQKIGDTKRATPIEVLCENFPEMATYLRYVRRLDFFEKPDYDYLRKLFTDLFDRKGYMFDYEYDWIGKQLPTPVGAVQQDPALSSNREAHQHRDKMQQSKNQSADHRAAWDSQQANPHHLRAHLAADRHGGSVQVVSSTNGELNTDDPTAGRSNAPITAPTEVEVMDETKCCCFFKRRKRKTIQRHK
CamKIV, sequence (Q16566 whole entry): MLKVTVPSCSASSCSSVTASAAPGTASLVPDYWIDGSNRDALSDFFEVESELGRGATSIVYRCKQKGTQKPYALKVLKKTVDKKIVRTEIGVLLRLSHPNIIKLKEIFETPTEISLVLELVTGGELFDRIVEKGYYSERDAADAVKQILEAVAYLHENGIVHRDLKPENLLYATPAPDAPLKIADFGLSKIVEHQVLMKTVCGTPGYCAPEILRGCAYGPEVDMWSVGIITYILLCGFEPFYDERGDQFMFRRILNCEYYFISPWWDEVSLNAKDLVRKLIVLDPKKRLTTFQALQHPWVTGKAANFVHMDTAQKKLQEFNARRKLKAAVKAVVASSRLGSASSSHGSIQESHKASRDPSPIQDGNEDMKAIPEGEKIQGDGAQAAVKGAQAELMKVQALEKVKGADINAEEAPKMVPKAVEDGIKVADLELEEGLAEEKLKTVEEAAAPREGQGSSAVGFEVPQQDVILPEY
Axl, sequence (P30530 26-894, species assumed): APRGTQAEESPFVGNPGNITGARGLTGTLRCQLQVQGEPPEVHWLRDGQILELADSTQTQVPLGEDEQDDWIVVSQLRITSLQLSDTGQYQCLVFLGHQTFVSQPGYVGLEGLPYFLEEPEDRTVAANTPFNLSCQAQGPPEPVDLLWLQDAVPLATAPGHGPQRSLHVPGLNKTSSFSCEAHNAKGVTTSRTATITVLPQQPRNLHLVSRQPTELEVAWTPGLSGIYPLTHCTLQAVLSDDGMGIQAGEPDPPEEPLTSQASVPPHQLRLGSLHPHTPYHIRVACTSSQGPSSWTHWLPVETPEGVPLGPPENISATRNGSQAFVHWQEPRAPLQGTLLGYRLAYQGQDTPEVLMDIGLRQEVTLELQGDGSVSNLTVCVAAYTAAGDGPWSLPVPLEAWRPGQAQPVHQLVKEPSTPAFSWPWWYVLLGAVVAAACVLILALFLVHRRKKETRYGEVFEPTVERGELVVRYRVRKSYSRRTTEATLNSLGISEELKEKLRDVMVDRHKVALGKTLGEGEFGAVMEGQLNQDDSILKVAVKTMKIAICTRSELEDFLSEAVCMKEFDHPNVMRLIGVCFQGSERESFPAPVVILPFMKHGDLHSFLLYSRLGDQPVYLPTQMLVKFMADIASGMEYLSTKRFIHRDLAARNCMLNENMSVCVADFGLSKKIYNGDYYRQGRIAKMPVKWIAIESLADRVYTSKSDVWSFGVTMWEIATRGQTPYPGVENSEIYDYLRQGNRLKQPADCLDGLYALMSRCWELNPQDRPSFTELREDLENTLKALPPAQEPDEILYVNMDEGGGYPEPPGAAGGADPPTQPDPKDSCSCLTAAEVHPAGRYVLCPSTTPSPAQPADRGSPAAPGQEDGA
CDK9/cyclinT1, sequence (P50750 whole entry, species assumed): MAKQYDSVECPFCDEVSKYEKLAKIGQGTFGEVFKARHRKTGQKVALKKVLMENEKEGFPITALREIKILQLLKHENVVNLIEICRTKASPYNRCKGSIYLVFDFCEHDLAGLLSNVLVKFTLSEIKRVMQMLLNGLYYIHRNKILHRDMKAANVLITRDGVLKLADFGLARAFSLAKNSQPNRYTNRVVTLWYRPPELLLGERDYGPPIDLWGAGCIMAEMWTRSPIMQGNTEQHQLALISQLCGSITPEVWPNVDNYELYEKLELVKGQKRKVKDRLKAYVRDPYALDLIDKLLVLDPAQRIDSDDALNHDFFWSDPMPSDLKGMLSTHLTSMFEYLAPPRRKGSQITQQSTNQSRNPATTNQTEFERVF
CDK9/cyclinT1, sequence (O60563 whole entry partner, species assumed): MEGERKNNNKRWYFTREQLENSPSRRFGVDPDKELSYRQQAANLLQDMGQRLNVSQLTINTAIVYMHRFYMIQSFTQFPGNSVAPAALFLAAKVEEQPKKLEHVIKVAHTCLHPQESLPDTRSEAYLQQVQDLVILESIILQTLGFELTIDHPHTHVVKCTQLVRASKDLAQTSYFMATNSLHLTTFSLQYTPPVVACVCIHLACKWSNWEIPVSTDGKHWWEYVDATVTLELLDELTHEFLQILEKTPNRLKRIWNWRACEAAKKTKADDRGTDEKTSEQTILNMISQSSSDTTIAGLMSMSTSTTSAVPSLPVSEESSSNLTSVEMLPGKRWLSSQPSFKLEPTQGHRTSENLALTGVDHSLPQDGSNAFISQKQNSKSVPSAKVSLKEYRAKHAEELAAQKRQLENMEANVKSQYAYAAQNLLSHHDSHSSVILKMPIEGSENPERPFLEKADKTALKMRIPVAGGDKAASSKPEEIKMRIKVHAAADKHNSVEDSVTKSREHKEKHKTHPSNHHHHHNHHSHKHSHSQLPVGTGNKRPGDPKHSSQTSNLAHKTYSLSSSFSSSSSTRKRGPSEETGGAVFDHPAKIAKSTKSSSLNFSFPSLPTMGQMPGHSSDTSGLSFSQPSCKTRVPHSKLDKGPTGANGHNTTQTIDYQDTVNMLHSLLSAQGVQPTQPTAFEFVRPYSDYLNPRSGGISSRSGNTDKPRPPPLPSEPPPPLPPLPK
GSK3_beta, sequence (P49841 whole entry, species assumed): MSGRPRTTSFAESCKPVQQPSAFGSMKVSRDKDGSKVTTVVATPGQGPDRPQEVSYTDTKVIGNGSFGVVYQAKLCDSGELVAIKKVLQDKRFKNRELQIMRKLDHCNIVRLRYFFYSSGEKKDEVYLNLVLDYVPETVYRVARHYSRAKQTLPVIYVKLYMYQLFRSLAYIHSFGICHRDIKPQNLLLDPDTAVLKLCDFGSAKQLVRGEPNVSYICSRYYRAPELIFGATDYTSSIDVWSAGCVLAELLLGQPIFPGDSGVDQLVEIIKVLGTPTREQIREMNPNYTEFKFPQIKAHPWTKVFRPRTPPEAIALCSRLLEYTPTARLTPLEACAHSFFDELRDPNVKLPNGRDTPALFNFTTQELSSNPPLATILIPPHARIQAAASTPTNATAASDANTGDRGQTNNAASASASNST
T2 sequence (Q7TMS5 whole entry): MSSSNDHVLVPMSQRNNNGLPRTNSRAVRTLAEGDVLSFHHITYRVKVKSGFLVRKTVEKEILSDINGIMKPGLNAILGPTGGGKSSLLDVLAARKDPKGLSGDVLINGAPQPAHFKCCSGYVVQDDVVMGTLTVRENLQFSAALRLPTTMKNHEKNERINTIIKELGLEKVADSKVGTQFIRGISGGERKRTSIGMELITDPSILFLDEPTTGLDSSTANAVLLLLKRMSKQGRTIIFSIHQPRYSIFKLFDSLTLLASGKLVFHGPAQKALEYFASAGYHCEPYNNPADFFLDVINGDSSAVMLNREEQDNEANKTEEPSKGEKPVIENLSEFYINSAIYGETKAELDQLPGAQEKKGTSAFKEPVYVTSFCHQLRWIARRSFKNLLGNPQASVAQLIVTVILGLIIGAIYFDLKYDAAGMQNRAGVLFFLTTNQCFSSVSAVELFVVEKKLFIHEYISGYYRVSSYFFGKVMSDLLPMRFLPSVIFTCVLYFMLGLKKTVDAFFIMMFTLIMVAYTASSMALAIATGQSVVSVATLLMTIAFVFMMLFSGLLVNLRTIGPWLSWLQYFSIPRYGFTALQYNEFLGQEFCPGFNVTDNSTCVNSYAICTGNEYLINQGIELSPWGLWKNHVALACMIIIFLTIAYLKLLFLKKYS
PhK_gamma1, sequence (Q16816 whole entry): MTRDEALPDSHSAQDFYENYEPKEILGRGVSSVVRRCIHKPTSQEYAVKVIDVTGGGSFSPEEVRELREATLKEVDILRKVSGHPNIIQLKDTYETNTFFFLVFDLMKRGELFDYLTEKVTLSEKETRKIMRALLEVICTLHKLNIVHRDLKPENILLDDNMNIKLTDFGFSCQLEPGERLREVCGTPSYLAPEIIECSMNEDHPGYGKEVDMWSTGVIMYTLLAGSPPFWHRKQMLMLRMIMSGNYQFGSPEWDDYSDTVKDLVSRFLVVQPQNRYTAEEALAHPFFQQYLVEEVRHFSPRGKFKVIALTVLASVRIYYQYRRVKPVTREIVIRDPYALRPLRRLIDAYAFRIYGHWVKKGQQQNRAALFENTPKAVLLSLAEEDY

By Papp A→B is commonly meant the apparent permeability from the apical to the basolateral side of a cell layer. High values mean ready permeation, low ones poor permeation. For `CC1(C)OCCn2c1nc1c(N3CCOCC3)nc(-c3cnc(N)nc3)nc12` [GDC-0084, 5-(6,6-dimethyl-4-morpholino-8,9-dihydro-6H-[1,4]oxazino[3,4-e]purin-2-yl)pyrimidin-2-amine], the Clhep in data set [1] (Dog hepatocytes) is 13 mL/min/kg; in data set [1] (Mouse hepatocytes), 30 mL/min/kg; in data set [1] (Rat hepatocytes), 3 mL/min/kg. This compound also showed an MTD in [2] of 45 mg. Also, the Papp A→B at 2 h, 5 μM in [3] turned out to be 13.5 ± 0.9 ×10⁻⁶ cm/s; in data set [4] it was 17.6 ± 2.1 ×10⁻⁶ cm/s. Moreover, the “substrate of efflux transporters” value in data set [5] (efflux ratios in MDCK or LLC-PK1 transfected cells) is “poor substrate of the efflux transporters P-gp and BCRP”. For the same compound, the “apparent permeability (Papp), in words” value in [5] (transfected MDCK and LLC-PK1 cells) is “high and comparable to that of metoprolol”. Moreover, the fraction unbound at 4 h, 5 µM in data set [6] was 0.067. The “mean pixel intensity (MALDI imaging)” value in [7] (GS2 tumors) amounted to 0.34; in data set [7] (normal brain of GS2 tumor-bearing mice), 0.55. Also, the inhibition at 1 µM is 6% in [8]; -0.9% in [9]; -0.2% in data set [10]; 0.2% in [11]; 1% in [12]; 6% in data set [13]. Moreover, the inhibition at 1 µM in data set [14] is -2%; in data set [15], -9%; in data set [16] it was 2%; in data set [17], 6%.
